Test results reported in BigSolDB 2.1.

CCS(=O)(=O)CCn1c([N+](=O)[O-])cnc1C
solubility (mole fraction)
Conditions | 278.15 K | 283.15 K | 288.15 K | 293.15 K | 298.15 K | 303.15 K | 308.15 K | 313.15 K | 318.15 K | 323.15 K
in 2-butoxyethanol | 0.00191 | 0.00214 | 0.00276 | 0.00372 | 0.00446 | 0.0054 | 0.00687 | 0.00826 | 0.0106 | 0.0133
in 2-ethoxyethanol | 0.00356 | 0.00437 | 0.00526 | 0.00647 | 0.00792 | 0.00957 | 0.012 | 0.0147 | 0.0181 | 0.0222
in 2-methoxyethanol | 0.00839 | 0.0102 | 0.0118 | 0.0145 | 0.0175 | 0.0209 | 0.0257 | 0.0314 | 0.0377 | 0.0462
in 2-propoxyethanol | 0.0022 | 0.00261 | 0.00329 | 0.00429 | 0.00513 | 0.00622 | 0.00778 | 0.00967 | 0.0123 | 0.0154
in DMAc | 0.0509 | 0.0571 | 0.0655 | 0.0745 | 0.083 | 0.0944 | 0.107 | 0.121 | 0.136 | 0.154
in DMF | 0.0454 | 0.0521 | 0.06 | 0.0691 | 0.0787 | 0.0905 | 0.104 | 0.119 | 0.134 | 0.152
in NMP | 0.0704 | 0.0804 | 0.089 | 0.0987 | 0.109 | 0.122 | 0.137 | 0.15 | 0.167 | 0.183
in acetone | 0.00866 | 0.011 | 0.0133 | 0.0161 | 0.0195 | 0.0233 | 0.028 | 0.0348 | 0.0426 | 0.0517
in ethanol | 0.000263 | 0.000375 | 0.000479 | 0.000665 | 0.000836 | 0.0012 | 0.0016 | 0.00207 | 0.00277 | 0.00377
in ethyl acetate | 0.00334 | 0.00412 | 0.00488 | 0.0057 | 0.00689 | 0.00825 | 0.0099 | 0.0118 | 0.0141 | 0.0168
in methanol | 0.000928 | 0.00119 | 0.00157 | 0.00197 | 0.00263 | 0.00345 | 0.00448 | 0.00597 | 0.00785 | 0.0104
in methyl acetate | 0.00557 | 0.00673 | 0.00791 | 0.0095 | 0.0114 | 0.0134 | 0.0159 | 0.0188 | 0.0223 | 0.0257
in n-butyl acetate | 0.00199 | 0.00235 | 0.0029 | 0.00358 | 0.00421 | 0.00513 | 0.00617 | 0.0074 | 0.00898 | 0.0107
in n-propyl acetate | 0.00255 | 0.00314 | 0.00377 | 0.00456 | 0.00543 | 0.00659 | 0.00783 | 0.00948 | 0.0114 | 0.0135
